Experimental data as given in patent publication US11952351B2, “Lipid particle, composition comprising lipid particle, and method for delivering activators to cell” (KABUSHIKI KAISHA TOSHIBA, priority 2018, dated 2024).

What was measured:
[1] = test system: human peripheral blood mononuclear cells PBMCs; experiment: vector DNA introduced by liposomes of Table 3, NLuc enzyme activity, PBMC; type: cell-based; conditions: set of compound (2-01) and DOPE; 0.8 μg DNA/well, 48 hours, FIG. 5
Experimental: (§1) The amount of vector DNA introduced to cells by the liposomes was quantified on the basis of expression of NLuc genes on vector DNA. For evaluating the expression of NLuc, emission thereof was measured with a microtiter plate reader (infinite F200 [trademark], manufactured by Tecan). As the cells, human T-cell leukemia cell lines Jurkat (purchased from American Type Culture Collection) and human peripheral blood mononuclear cells PBMCs (purchased from LONZA Japan) were adopted. After 100 μL of the Jurkat cell suspension (1×10^6 cells/mL) and 100 μL of the PBMC cell suspension (5×10^6 cells/mL) were individually inoculated on a 96-well plate, 1 μL of each liposome solution shown in Table 1 was added so that the DNA amount might be 0.8 μg/well. Thereafter, the cells were incubated in an incubator at 37° C. for 48 hours under an atmosphere of 5% CO2, and then enzyme activity of NLuc was measured. The measurement of NLuc enzyme activity was carried out by use of NanoGlo Luciferase Assay System ([trademark], manufactured by Promega Corporation) with a luminometer according to the manual attached to the kit. The results are shown in FIG. 4 (Jurkat) and FIG. 5 (PBMC).

[2] = test system: human T-cell leukemia cell lines Jurkat; experiment: vector DNA introduced by liposomes of Table 3, NLuc enzyme activity, Jurkat; type: cell-based; conditions: DOTAP as lipid forming a membrane; 0.8 μg DNA/well, 48 hours, FIG. 4
Experimental: as §1

[3] = test system: Jurkat, MCF-7 and Huh-7 cells; experiment: vector DNA introduced by liposomes of Table 7, NLuc enzyme activity; type: cell-based, human; conditions: MCF-7, Huh-7, Jurkat; 48 hours, FIGS. 7 to 11
Experimental: The amount of vector DNA introduced to cells by the liposomes was quantified on the basis of expression of NLuc genes on vector DNA. For evaluating the expression of NLuc, emission thereof was measured with a microtiter plate reader (infinite F200 [trademark], manufactured by Tecan). As the cells, human T-cell leukemia cell lines Jurkat, human breast cancer cell lines MCF-7 and human liver cancer cell lines Huh-7 (purchased from American Type Culture Collection) were adopted. After 100 μL of the cell suspension (1×10^6 cells/mL) was inoculated on a 96-well plate, 1 μL of each liposome solution shown in Table 7 was added. Thereafter, the cells were incubated in an incubator at 37° C. for 48 hours under an atmosphere of 5% CO2, and then enzyme activity of NLuc was measured. The measurement of NLuc enzyme activity was carried out by use of NanoGlo Luciferase Assay System ([trademark], manufactured by Promega Corporation) with a luminometer according to the manual attached to the kit. FIGS. 7 to 9 show graphs in which Examples 4-1 and 4-2 are compared. […] FIGS. 10 and 11 show graphs in which Examples 4-2 and 4-3 are compared.

## CCCCCC/C=C/COC(=O)CCCCCCCC(CCCCCCCC(=O)OC/C=C/CCCCCC)CN(C)CCN(C)C [compound (1-01)]
[1]
  efficiency of NLuc gene expression in PBMC cells: higher efficiency of NLuc gene expression in PBMC cells than the compound of the formula (1-02)

## CCCCCC/C=C/COC(=O)CCCCCCCC(CCCCCCCC(=O)OC/C=C/CCCCCC)CCCCN1CCN(C)CC1 [compound (1-02)]
[2]
  efficiency of NLuc gene expression in Jurkat cells: higher efficiency of NLuc gene expression in Jurkat cells than the compound of the formula (1-01)

## CC1=C(/C=C/C(C)=C/C=C/C(C)=C/C(=O)OCCCN(C)CCOCCOCCN(C)CCCOC(=O)/C=C(C)/C=C/C=C(C)/C=C/C2=C(C)CCCC2(C)C)C(C)(C)CCC1 [compound (2-01)]
[3]
  expression efficiencies of NLuc genes (comparison in words): more easily introduced into adherent cells than into floating cells
